PMC10388363, “Novel 1,4-Dihydropyridines as Specific Binders and Activators of SIRT3 Impair Cell Viability and Clonogenicity and Downregulate Hypoxia-Induced Targets in Cancer Cells” (Journal of Medicinal Chemistry, 2023)

Tests used:
Assay type in all cases: biochemical
[1] = biological target: T1, human SIRT5 (Homo sapiens, UniProt Q9NXA8); experiment: PncA/GDH-coupled deacylation assay, SIRT5 activation (CPS1-succK537 substrate); settings: for effect on SIRT5: 10 μM compound; for SIRT5 activation: 100 μM compound
T1 construct: pET151D/Topo (Sirt3-114-380 and Sirt5-34-302); His tag (N, cleaved yes); made in house; host or cells: Escherichia coli
T1 sequence (Q9NXA8 34-302): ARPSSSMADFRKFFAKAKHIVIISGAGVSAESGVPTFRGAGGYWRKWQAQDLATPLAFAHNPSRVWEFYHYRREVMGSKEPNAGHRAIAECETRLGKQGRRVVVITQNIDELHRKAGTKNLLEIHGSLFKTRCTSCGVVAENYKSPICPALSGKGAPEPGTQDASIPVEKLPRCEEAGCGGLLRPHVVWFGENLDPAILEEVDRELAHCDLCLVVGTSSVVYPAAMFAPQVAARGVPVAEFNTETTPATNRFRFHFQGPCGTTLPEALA
Protocol: (§1) To avoid artifacts and other non-specific effects, instead of the “Fluor-de-Lys” (FdL) substrate, we used a PncA/GDH-coupled deacylation assay by measuring the NADPH oxidation to NADP^+ that relies on isoform-specific non-modified physiological acetyl or succinyl substrates [p53-acK381 for SIRT1, α-tubulin-[…] for SIRT2, acetyl-CoA synthetase 2 (ACS2)-acK642 for SIRT3, and CPS1-succK537 for SIRT5].[59] The assays were carried out using the 1,4-DHP derivatives 2a–n and 3a–d against SIRT3, including the prototype compounds 2 and 3 as positive controls.
(§2) N-terminally his-tagged human sirtuins were expressed in Escherichia coli using constructs in pET15b (Sirt1) or pET151D/Topo (Sirt3-114-380 and Sirt5-34-302).[4],[59],[61] Sirt2-43-356 was expressed from a modified pET19b containing a TEV protease cleavage site and an N-terminal SUMO-tag.[59],[79] Proteins were expressed and purified as described elsewhere.[59],[61],[79]−[81] In brief, proteins were expressed in E. coli, crude extracts were cleared by centrifugation, and the proteins were affinity purified using NiNTA beads.
(§3) Sirtuin deacylation activities were analyzed by using a coupled enzymatic assay as described in.[59],[82] For initial modulation screenings, substrate peptide specificity analysis, and compound titrations, 1.5 μM sirtuin was incubated with 50 μM substrate peptide and 100 μM NAD^+ in absence or presence of 10 μM, 100 μM or the indicated concentration of 1,4-DHP at a final DMSO concentration of 5%. For kinetic experiments, 1.5 μM sirtuin was incubated with saturating concentrations of either substrate peptide (0.4 mM) or NAD^+ (2 mM), with the second substrate’s concentration being varied in absence or presence of 200 μM 1,4-DHP at a final concentration of 5% DMSO. Potential 1,4-DHP effects on the coupled enzymes GDH and nicotinamidase were tested in control assays containing 50 μM NAM instead of the substrate peptide.

[2] = biological target: T2, human SIRT2 (Homo sapiens, UniProt Q8IXJ6); experiment: PncA/GDH-coupled deacylation assay, SIRT2 activation (α-tubulin-acK25 substrate); settings: for effect on SIRT2: 10 μM compound; for SIRT2 activation: 100 μM compound
T2 construct: Sirt2-43-356 was expressed from a modified pET19b; SUMO-tag (with TEV protease cleavage site) (N, cleaved yes); His tag (N, cleaved yes); made in house; host or cells: Escherichia coli
T2 sequence (Q8IXJ6 43-356): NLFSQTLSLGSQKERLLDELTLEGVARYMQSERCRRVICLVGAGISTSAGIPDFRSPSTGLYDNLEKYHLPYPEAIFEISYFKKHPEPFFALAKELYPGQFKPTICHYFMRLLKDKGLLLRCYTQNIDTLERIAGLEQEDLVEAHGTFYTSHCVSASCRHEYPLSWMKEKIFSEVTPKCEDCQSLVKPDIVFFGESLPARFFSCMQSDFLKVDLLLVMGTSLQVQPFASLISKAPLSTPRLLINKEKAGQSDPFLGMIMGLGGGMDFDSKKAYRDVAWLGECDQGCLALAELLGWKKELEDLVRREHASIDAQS
Protocol: as §1, §2, §3

[3] = biological target: T3, human SIRT1 (Homo sapiens, UniProt Q96EB6); experiment: PncA/GDH-coupled deacylation assay, SIRT1 activation (p53-acK381 substrate); settings: for effect on SIRT1: 10 μM compound; for SIRT1 activation: 100 μM compound
T3 construct: using constructs in pET15b (Sirt1); His tag (N, cleaved yes); made in house; host or cells: Escherichia coli
T3 sequence (Q96EB6 1-747): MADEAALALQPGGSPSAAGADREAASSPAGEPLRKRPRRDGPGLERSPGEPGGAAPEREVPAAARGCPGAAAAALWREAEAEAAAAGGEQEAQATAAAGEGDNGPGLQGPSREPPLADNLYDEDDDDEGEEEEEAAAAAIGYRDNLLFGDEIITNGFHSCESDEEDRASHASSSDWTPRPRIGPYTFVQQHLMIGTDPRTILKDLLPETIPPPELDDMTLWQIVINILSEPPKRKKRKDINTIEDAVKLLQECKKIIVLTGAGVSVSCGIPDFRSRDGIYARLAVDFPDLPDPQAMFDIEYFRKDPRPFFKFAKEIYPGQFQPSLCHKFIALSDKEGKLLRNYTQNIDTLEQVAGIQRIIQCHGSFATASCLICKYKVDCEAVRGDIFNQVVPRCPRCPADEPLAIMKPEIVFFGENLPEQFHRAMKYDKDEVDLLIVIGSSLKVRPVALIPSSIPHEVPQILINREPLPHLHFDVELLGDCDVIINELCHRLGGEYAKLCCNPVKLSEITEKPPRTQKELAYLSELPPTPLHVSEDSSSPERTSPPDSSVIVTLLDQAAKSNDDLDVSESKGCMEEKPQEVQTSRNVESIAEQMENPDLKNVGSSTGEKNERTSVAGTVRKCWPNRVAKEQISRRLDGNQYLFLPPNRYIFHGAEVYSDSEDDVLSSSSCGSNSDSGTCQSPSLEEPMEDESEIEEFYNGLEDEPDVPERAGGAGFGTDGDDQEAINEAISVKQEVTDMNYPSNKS
Protocol: as §1, §2, §3

Structure (SMILES)	effect on SIRT5 [1]	SIRT5 activation [1]	effect on SIRT2 [2]	SIRT2 activation [2]	effect on SIRT1 [3]	SIRT1 activation [3]
CCOC(=O)C1=CN(C(=O)c2ccc(OC)c(OC)c2)C=C(C(=O)OCC)C1c1ccccc1 [Compound 3c, Diethyl 1-(3,4-dimethoxybenzoyl)-4-phenyl-1,4-dihydropyridine-3,5-dicarboxylate]	negligible effects	160%	negligible effects	136%	negligible effects	156%
CCOC(=O)C1=CN(C(=O)c2cc(OC)cc(OC)c2)C=C(C(=O)OCC)C1c1ccccc1 [Compound 3d, Diethyl 1-(3,5-dimethoxybenzoyl)-4-phenyl-1,4-dihydropyridine-3,5-dicarboxylate]	negligible effects	–	negligible effects	–	negligible effects	130%
CCOC(=O)C1=CN(C(=O)c2cccc(OC)c2)C=C(C(=O)OCC)C1c1ccccc1 [Compound 3a, Diethyl 1-(3-methoxybenzoyl)-4-phenyl-1,4-dihydropyridine-3,5-dicarboxylate]	negligible effects	144%	negligible effects	130%	negligible effects	164%
